Target: T1, ITK (Homo sapiens, UniProt Q08881)
T1 construct: purchased Invitrogen PV3875
T1 sequence (Q08881 1-620): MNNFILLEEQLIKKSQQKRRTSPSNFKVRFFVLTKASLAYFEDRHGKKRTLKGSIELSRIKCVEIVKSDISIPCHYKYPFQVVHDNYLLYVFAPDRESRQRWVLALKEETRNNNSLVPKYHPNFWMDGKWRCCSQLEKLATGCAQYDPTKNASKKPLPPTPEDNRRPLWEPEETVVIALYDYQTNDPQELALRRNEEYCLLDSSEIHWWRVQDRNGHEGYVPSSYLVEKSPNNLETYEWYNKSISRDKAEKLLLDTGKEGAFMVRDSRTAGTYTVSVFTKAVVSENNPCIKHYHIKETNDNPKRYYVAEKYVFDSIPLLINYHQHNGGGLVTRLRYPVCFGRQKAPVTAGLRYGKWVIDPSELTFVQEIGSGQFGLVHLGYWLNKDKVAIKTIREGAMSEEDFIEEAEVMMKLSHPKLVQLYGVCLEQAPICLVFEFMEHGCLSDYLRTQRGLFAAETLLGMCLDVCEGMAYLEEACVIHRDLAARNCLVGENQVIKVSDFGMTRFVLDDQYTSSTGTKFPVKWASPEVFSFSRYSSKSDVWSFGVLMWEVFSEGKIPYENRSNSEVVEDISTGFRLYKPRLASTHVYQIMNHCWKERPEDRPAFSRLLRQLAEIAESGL
Test: ITK enzyme assay (Caliper or LCMS peptide phosphorylation)
Type: biochemical
Settings: purified ITK (Invitrogen PV3875), 20 μM ATP, Ki by Morrison's quadratic equation
Protocol: The ability of purified ITK (Invitrogen PV3875) to catalyze peptide phosphorylation is monitored using a Caliper LabChip 3000 microfluidic unit (Caliper assay) or by liquid chromatography-mass spectrometry (LCMS) using a Waters Acquity system (LCMS assay). […] Reactions are quenched by the addition of 2,2′,2″,2′″-(ethane-1,2-diyldinitrilo)tetraacetic acid (50 mM final). Non-phosphorylated substrate and phosphorylated product peptides are separated and quantified using a Caliper LabChip 3000 instrument. […] Reactions are quenched by the addition of trichloroacetic acid (5% v/v final). Non-phosphorylated substrate and phosphorylated product peptides are separated by ultra performance LC and detected by a coupled triple quadrupole MS device applying multiple reaction monitoring (MRM) for quantification. The area of the MRM-extracted mass signal is used to assess the inhibition by test compounds. Equilibrium dissociation constant (Ki) values for ITK inhibitors are calculated from plots of activity vs. inhibitor concentration using Morrison's quadratic equation that accounts for the potential of tight binding, and by also applying the conversion factor that accounts for competitive inhibition and the concentration of ATP used in the assay relative to its apparent Michaelis constant (Km,app).

SMILES	Ki
CC12Cc3[nH]nc(C(=O)Nc4cnn(C(c5cccnc5)C5CC[S+]([O-])CC5)c4)c3CC1C2 (single isomer, unassigned) [Example 146a, 5a-methyl-N-(1-((1-oxidotetrahydro-2H-thiopyran-4-yl)(pyridin-3-yl)methyl)-1H-pyrazol-4-yl)-1,4,4a,5,5a,6-hexahydrocyclopropa[f]indazole-3-carboxamide]	0.1 nM
CC12Cc3[nH]nc(C(=O)Nc4cnn(C(c5ccccc5)C5CCCCS5(=O)=O)c4)c3CC1C2 (single isomer, unassigned) [Example 143d, N-(1-((1,1-dioxidotetrahydro-2H-thiopyran-2-yl)(phenyl)methyl)-1H-pyrazol-4-yl)-5a-methyl-1,4,4a,5,5a,6-hexahydrocyclopropa[f]indazole-3-carboxamide]	< 0.1 nM
CN(C)CCC(c1cccc(C(F)(F)F)c1)n1cc(NC(=O)c2n[nH]c3c2CCC(C)(C)C3)cn1 (single isomer, unassigned) [Example 30a, N-(1-(3-(dimethylamino)-1-(3-(trifluoromethyl)phenyl)propyl)-1H-pyrazol-4-yl)-6,6-dimethyl-4,5,6,7-tetrahydro-1H-indazole-3-carboxamide]	2 nM
CC1(C)CCc2c(C(=O)Nc3cnn(C(CN4CCC4)c4ccccc4)c3)n[nH]c2C1 (single isomer, unassigned) [Example 57b, N-(1-(2-(azetidin-1-yl)-1-phenylethyl)-1H-pyrazol-4-yl)-6,6-dimethyl-4,5,6,7-tetrahydro-1H-indazole-3-carboxamide]	12 nM
CC(c1ccncc1)n1cc(NC(=O)c2n[nH]c3c2CCC(C)(C)C3)cn1 (single isomer, unassigned) [Example 107a, 6,6-dimethyl-N-(1-(1-(pyridin-4-yl)ethyl)-1H-pyrazol-4-yl)-4,5,6,7-tetrahydro-1H-indazole-3-carboxamide]	18 nM
CC1(C)CCc2c(C(=O)Nc3cnn(C(c4cccnc4)C4CC[S+]([O-])CC4)c3)n[nH]c2C1 (single isomer, unassigned) [Example 147a, 6,6-dimethyl-N-(1-((1-oxidotetrahydro-2H-thiopyran-4-yl)(pyridin-3-yl)methyl)-1H-pyrazol-4-yl)-4,5,6,7-tetrahydro-1H-indazole-3-carboxamide]	0.6 nM
CC12Cc3[nH]nc(C(=O)Nc4cnn(C(c5ccccc5)C5CCCCS5(=O)=O)c4)c3CC1C2 (single isomer, unassigned) [Example 143c, N-(1-((1,1-dioxidotetrahydro-2H-thiopyran-2-yl)(phenyl)methyl)-1H-pyrazol-4-yl)-5a-methyl-1,4,4a,5,5a,6-hexahydrocyclopropa[f]indazole-3-carboxamide]	2 nM
Cn1cc(C(c2ccccc2)n2cc(NC(=O)c3n[nH]c4c3C3CC3CC4)cn2)cn1 (single isomer, unassigned) [Example 35b, N-(1-((1-methyl-1H-pyrazol-4-yl)(phenyl)methyl)-1H-pyrazol-4-yl)-3,4,5,5a,6,6a-hexahydro cyclopropa[e]indazole-1-carboxamide]	2 nM
CC1(C)CCc2c(C(=O)Nc3cnn(C(c4cccc(C(C)(C)O)c4)C4CCS(=O)(=O)CC4)c3)n[nH]c2C1 (single isomer, unassigned) [Example 119a]	0.1 nM
O=C(Nc1cnn(Cc2ccccc2)c1)c1n[nH]c2c1CCCCC2 [Example 124, N-(1-benzyl-1H-pyrazol-4-yl)-1,4,5,6,7,8-hexahydrocyclohepta[c]pyrazole-3-carboxamide]	140 nM
CC1(C)Cc2[nH]nc(C(=O)Nc3cnn(Cc4ccccc4)c3)c2CC1O (single isomer, unassigned) [Example 70a, N-(1-benzyl-1H-pyrazol-4-yl)-5-hydroxy-6,6-dimethyl-4,5,6,7-tetrahydro-1H-indazole-3-carboxamide]	11 nM
CC1(C)Cc2c(C(=O)Nc3cnn(Cc4ccccc4)c3)n[nH]c2CCO1 [Example 71b, N-(1-benzyl-1H-pyrazol-4-yl)-5,5-dimethyl-4,5,7,8-tetrahydro-1H-oxepino[4,5-c]pyrazole-3-carboxamide]	790 nM
CC1(C)CCc2c(C(=O)Nc3cnn(C(CN4CCC4)c4ccccc4)c3)n[nH]c2C1 (single isomer, unassigned) [Example 57a, N-(1-(2-(azetidin-1-yl)-1-phenylethyl)-1H-pyrazol-4-yl)-6,6-dimethyl-4,5,6,7-tetrahydro-1H-indazole-3-carboxamide]	2 nM
CN(C)CCC(c1ccccc1)n1cc(NC(=O)c2n[nH]c3c2CCC2(CCCO2)C3)cn1 (stereo not drawn) [Example 59, N-(1-(3-(dimethylamino)-1-phenylpropyl)-1H-pyrazol-4-yl)-1′,4,4′,5,5′,7′-hexahydro-3H-spiro[furan-2,6′-indazole]-3′-carboxamide]	40 nM
CC1(C)CCc2c(C(=O)Nc3cnn([C@@H]4COC[C@H]4c4ccccc4)c3)n[nH]c2C1 (single isomer, unassigned) [Example 135b, 6,6-dimethyl-N-(1-(4-phenyltetrahydrofuran-3-yl)-1H-pyrazol-4-yl)-4,5,6,7-tetrahydro-1H-indazole-3-carboxamide]	14 nM
CC1(C)CCc2c(C(=O)Nc3cnn(C(c4cccnc4)C4CC[S+]([O-])CC4)c3)n[nH]c2C1 (single isomer, unassigned) [Example 147c, 6,6-dimethyl-N-(1-((1-oxidotetrahydro-2H-thiopyran-4-yl)(pyridin-3-yl)methyl)-1H-pyrazol-4-yl)-4,5,6,7-tetrahydro-1H-indazole-3-carboxamide]	7 nM
CC12Cc3[nH]nc(C(=O)Nc4cnn(C(c5cccnc5)C5CS(=O)(=O)C5)c4)c3CC1C2 (single isomer, unassigned) [Example 116b, N-(1-((1,1-dioxidothietan-3-yl)(pyridin-3-yl)methyl)-1H-pyrazol-4-yl)-5a-methyl-1,4,4a,5,5a,6-hexahydrocyclopropa[f]indazole-3-carboxamide]	2 nM
CC1(C)CCc2c(C(=O)Nc3cnn(C(c4ccccc4)C4(F)CCNCC4)c3)n[nH]c2C1 (single isomer, unassigned) [Example 44b, N-(1-((4-fluoropiperidin-4-yl)(phenyl)methyl)-1H-pyrazol-4-yl)-6,6-dimethyl-4,5,6,7-tetrahydro-1H-indazole-3-carboxamide]	0.2 nM
CC1(C)CCc2c(C(=O)Nc3cnn(C(c4ccnc(N)c4)C4CCOCC4)c3)n[nH]c2C1 (single isomer, unassigned) [Example 133a, N-(1-((2-aminopyridin-4-yl)(tetrahydro-2H-pyran-4-yl)methyl)-1H-pyrazol-4-yl)-6,6-dimethyl-4,5,6,7-tetrahydro-1H-indazole-3-carboxamide]	0.4 nM
CC1(C)CCc2c(C(=O)Nc3cnn(C(c4cccc(S(C)(=O)=O)c4)C4CCOC4)c3)n[nH]c2C1 (single isomer, unassigned) [Example 126c, 6,6-dimethyl-N-(1-((3-(methylsulfonyl)phenyl)(tetrahydrofuran-3-yl)methyl)-1H-pyrazol-4-yl)-4,5,6,7-tetrahydro-1H-indazole-3-carboxamide]	4 nM
CCC1(C)CCc2c(C(=O)Nc3cnn(Cc4ccccc4)c3)n[nH]c2C1 (single isomer, unassigned) [Example 56a, N-(1-benzyl-1H-pyrazol-4-yl)-6-ethyl-6-methyl-4,5,6,7-tetrahydro-1H-indazole-3-carboxamide]	9 nM
CC(=O)N1CC(C(c2ccccc2)n2cc(NC(=O)c3n[nH]c4c3CCC(C)(C)C4)cn2)C1 (single isomer, unassigned) [Example 37b, N-(1-((1-acetylazetidin-3-yl)(phenyl)methyl)-1H-pyrazol-4-yl)-6,6-dimethyl-4,5,6,7-tetrahydro-1H-indazole-3-carboxamide]	2 nM
CC1(C)CCc2c(C(=O)Nc3cnn(C(c4cccnc4)C4CCCCS4(=O)=O)c3)n[nH]c2C1 (single isomer, unassigned) [Example 144c, N-(1-((1,1-dioxidotetrahydro-2H-thiopyran-2-yl)(pyridin-3-yl)methyl)-1H-pyrazol-4-yl)-6,6-dimethyl-4,5,6,7-tetrahydro-1H-indazole-3-carboxamide]	0.1 nM
O=C(Nc1cnn(Cc2ccccc2)c1)c1n[nH]c2c1CC(F)(F)CC2 [Example 17, N-(1-benzyl-1H-pyrazol-4-yl)-5,5-difluoro-4,5,6,7-tetrahydro-1H-indazole-3-carboxamide]	36 nM
